In PMC6944487, “Tandem Molecular Self-Assembly Selectively Inhibits Lung Cancer Cells by Inducing Endoplasmic Reticulum Stress” (Research, 2019):
pIC50: −log10 of the molar value. Read-outs that look alike come from different tables or passages of the source. *1 amine or outer side, *2 acyl side, *3 side chain or, on linkers, in order; H or OH if unused. Where a SMILES comes first, the peptide text is derived from it. [ ]: non-standard residue; d: D form. The star is where a group is joined. X1 = O=C(c1ccc(/N=N/c2ccc(N[*:1])cc2)cc1)[*:2]; pY = N[C@@H](Cc1ccc(OP(=O)(O)O)cc1)C(=O)O; NBD = O=[N+]([O-])c1ccc(*)c2nonc12; βAla = NCCC(=O)O

Assays:
[1] = Body weight of treated tumor-bearing mice; assay type: in vivo, BALB/c nude mice; settings: 5 mg/kg i.v. once every three days
Description: (§1) A549 cells were maintained in our lab. The BALB/c nude (6 weeks old, female) mice purchased from Beijing Vital River Laboratory Animal Technology Co., Ltd. were used. 5 × 10^7 A549 cells (100 μL) mixed with growth factor-reduced Matrigel (50 μL, BD Biosciences) were subcutaneously injected into the right flank of each mouse. The drug treatment was started when tumor volume reached 80 mm^3; the tumor volume was calculated by the formula: length∗width^2/2. Mice (n = 5) received compounds 1, 2, 4, and 5 (5.0 mg/kg) in PBS by i.v. injection, whereas the control group (n = 5) received PBS only. The compound was injected every three days. The mice were weighed, and tumors were measured every two days during the treatment period.

[2] = Critical aggregation concentration (CAC) by dynamic light scattering; assay type: physicochemical; settings: DLS, light scattering intensity per concentration, PBS pH 7.4
Description: The synthesized compounds were characterized by 1H NMR (Bruker ARX-400) using DMSO-d6 as the solvent. HPLC was conducted at the LUMTECH HPLC (Germany) system using a C18 RP column with methanol (0.05% of TFA) and water (0.05% of TFA) as the eluents. LC-MS was conducted at the LCMS-20AD (Shimadzu) system. HR-MS was performed at the Agilent 6520 Q-TOF LC/MS using ESI-L low concentration tuning mix (Lot No. LB60116 from the Agilent Tech.). CMC values and size distribution of micelles were determined by dynamic light scattering (DLS); this experiment was conducted on a laser light scattering spectrometer (BI-200SM, Brookhaven, USA). The morphology conversion of the peptide derivatives was measured by TEM performed on a Tecnai G2 F20 system, operating at 200 kV. Cellular uptake and drug tracking images were taken by a confocal laser scanning microscopy (Leica TSC SP8, Germany).
The CAC value of compounds 1, 2, 4, and 5 in PBS solution (pH = 7.4) was determined by dynamic light scattering (DLS), and the light scattering intensity was recorded for each concentration analyzed.

A549 xenograft tumors = test: In vivo antitumor assay, A549 xenograft; set-up: species or system BALB/c nude mice; settings: 5 mg/kg i.v. once every three days, tumors at day 15
Description: as §1
The mice were sacrificed to obtain tumor tissues; tumor tissues were fixed by 4% formalin over 48 h, embedded in paraffin, cut into 5-6 μm sections for H&E staining, and evaluated using light microscopy as previously described method.

A549 cells [3] = test: Lysosome colocalization (CLSM, Lyso-Tracker); assay type: cell-based, human; settings: 200 μM; for lysosomal escape: 4 h, Lyso-Tracker; for mean fluorescence intensity in cells (versus cells treated with Comp. 4 and Comp. 5): A549 cells
Description: (§2) A549 cells was seeded in CLSM cultural dish at a density of 1 × 10^5 cells. After incubation for 12 h, a medium was removed. The cells were then incubated with Comp. 1, 2, 4, or 5 (200 μM) for 1 or 4 h (lysosome colocation). Cells were incubated with Comp. 1 (200 μM) for 8, 10, and 12 h (mitochondrial colocation). Next, the medium containing different compound was removed and washed by PBS for three times, and lysosome tracker (1×) was incubated with cells for 45 min. The medium was removed and the cells were washed by PBS three times. 1-2 mL of DMEM was added for imaging by live cell imaging systems (λexc. = 488 nm, emission = 510‐560 nm; λexc. = 543 nm, emission = 650‐750 nm). Mito-Tracker (1×) was incubated with cells for 30 min. The medium was then removed and washed by PBS three times. 1-2 mL of DMEM was added for imaging by live cell imaging systems (λexc. = 488 nm, emission = 510‐560 nm; λexc. = 633 nm, emission = 650‐750 nm, all test conditions are consistent).

different cell lines = test: Cell uptakes; assay type: cell-based; settings: 200 μM, 6 h, cell lysate OD 488 nm, n = 3
Description: Cells were incubated in 12-well plates at a density of 10 × 10^6 cells. The cell cultural medium containing 200 μM of each compound was added to the cells, and the upper medium was removed at 6 h time point. Cells were washed for three times with PBS or DMEM. After being treated with cell lysis solution (1 mL per well contained 200 μL DMSO) for 15 min, the solutions were centrifuged at […] for 10 min. The amount of compound in the upper solution was determined by a microplate reader at OD of 488 nm (Bio-Rad Mark^TM, America).

[4] = test system: T1, alkaline phosphatase (ALP); test: Conversion by alkaline phosphatase (LC-MS); assay type: in vitro ADME; settings: alkaline phosphatase (ALP) in PBS; ALP 1 U/mL, 200 μM in PBS pH 7.4, 37°C, within 6 h, LC-MS trace; read-out: Comp. 1 converted to Comp. 2
T1 construct: purchased Takara D2250
Description: (§3) The Comp. […] 1. […] We thereafter added the enzyme ALP (1 U·mL^−1) to the PBS solution of Comp. 1 at 37°C, and the solution remained clear after 12 h (Figure 2(a)). […] 1 had been converted to Comp. 2 within 6 h (Figures 2(a) and ). Accordingly, the nanofibers with a diameter of 6–10 nm formed in the resulting solution of Comp. 2 (Figure 2(c)). With the addition of rat liver microsomes (226 μg·mL^−1) and NADPH (50 equiv.) to trigger the conversion from azobenzene to aniline, a yellowish precipitate was clearly observed within 24 h (Figure 2(b)). […] 2 had been converted into Comp. 3 within 24 h (Figures 2(b) and ). […] 2 and Comp. 3. […] The above observations strongly indicated the tandem molecular self-assembly behavior of Comp. 1 with the catalysis by ALP and reductase.
(§4) […] of Comp. 1 was dissolved in 500 μL of PBS (pH = 7.4) as a stock solution (PBS was bubbled by Argon for 30 min in advance). The concentration of the stock solution was 200 μM. Na2CO3 (1 M) was added to the above solution to adjust the final pH to 7.4. The solution was incubated at 37°C. The alkali phosphatase (1 U/mL) was then added to the solution for 12 hours at 37°C to trigger the first step of self-assembly. After that, rat liver microsomes (226 μg/mL) and NADPH (50 equiv.) were added for 24 hours at 37°C to trigger the second step of self-assembly.

A549 cells [5] = test: Cell proliferation (SRB) assay, A549; assay type: cell-based, human
Description: (§5) PC-3, MCF-7, HeLa, U87, HPAEpiC, and A549 cells were purchased from the Type Culture Collection of the Chinese Academy of Sciences (Shanghai, China); PC-3, MCF-7, HeLa, U87, and A549 cells were cultured in Dulbecco's Modified Eagle's medium (DMEM) supplemented with 10% v/v fetal bovine serum (FBS), 100 U/mL penicillin, and 100 μg/mL streptomycin; HPAEpiC cells were cultured in RPMI 1640 Medium supplemented with 10% v/v fetal bovine serum, 100 U/mL penicillin, and 100 μg/mL streptomycin. All cells were at 37°C in a humidified atmosphere of 5% CO2.
(§6) In this experiment, all cell lines were incubated in a 96-well plate at a density of about 6000. According to previous method, cell was fixed by cold 10% trichloroacetic acid solution at 4°C overnight after incubated with compound for 48 h. Then, discarding the fixative solution and washed by water for three times, put the 96-well plate in a 37°C oven to dry. Next, 0.4% SRB solution was used to stain cell for 20 min at room temperature to form protein-bound dry, then using 1% AcOH solution to clean excessive SRB. Put the 96-well plate in a 37°C oven to dry and add 10 mM Tris base solution of 100 μL every well to solubilize the protein-bound dry for 30 min. Measure the OD at 570 nm in a microplate reader.

[6] = test system: normal human alveolar epithelial cells (HPAEpiC); test: Cell proliferation (SRB) assay, HPAEpiC; assay type: cell-based; settings: 48 h incubation, n = 3
Description: as §5, §6

MCF-7 cells = test: Cell proliferation (SRB) assay, MCF-7; assay type: cell-based; settings: 48 h incubation, n = 3
Description: as §5, §6

[7] = Appearance of solution in PBS; assay type: physicochemical; settings: 200 μM (0.03 wt%) in PBS pH 7.4
Description: as §3, §4

A549 cells [8] = test: JC-1 staining, mitochondrial membrane potential; assay type: cell-based, human; settings: 200 μM, 4 h time point
Description: Mitochondrial membrane potential was assessed by staining with JC-1 dye (5,50,6,60-tetrachloro-1,10,3,30-tetraethylbenzimidazol-carbocyanine iodide) (abcam). 1 × 10^4 A549 cells per well, seeded in 96-well plates, were treated with Comp.1 (200 μM) for different time points and FCCP (100 μM) for 4 h. After treatment, a medium was removed and the cells were then incubated in 100 μL PBS containing JC-1 dye (20 μM) for 15 min at 37°C and subsequently washed with PBS for three times. The red fluorescence (λexc. = 543 nm, emission = 570‐620 nm) was determined by a microplate reader (BioTek).
A549 cells were seeded in CLSM cultural dish at a density of 1 × 10^5 cells. After incubation for 12 h, a medium was removed. The cells were then incubated with Comp. 1 (200 μM) at different time points. The cells also were incubated with FCCP (100 μM) for 4 h as the positive control group. Then, removing medium, JC-1 staining kit (20 μM) was incubated with A549 cells for 15 min. The medium was removed, and the cells were washed by PBS three times. 1 mL of PBS was added for imaging by live cell imaging systems (green channel (depolarization) λexc. = 488 nm, emission = 500 − 540 nm; red channel (hyperpolarization) λexc. = 543 nm, emission = 570‐620 nm, all test conditions are consistent).

PC-3 cells = test: Cell proliferation (SRB) assay, PC-3; assay type: cell-based; settings: 48 h incubation, n = 3
Description: as §5, §6

U87 cells = test: Cell proliferation (SRB) assay, U87; assay type: cell-based; settings: 48 h incubation, n = 3
Description: as §5, §6

HeLa cells = test: Cell proliferation (SRB) assay, HeLa; assay type: cell-based; settings: 48 h incubation, n = 3
Description: as §5, §6

A549 cells [9] = test: Mitochondrial colocalization / cytoplasmic vacuolization, ER stress (CLSM, Mito-Tracker); assay type: cell-based, human; settings: 200 μM, 10-12 h
Description: as §2

[10] = test system: reductase (rat liver microsomes); test: in vitro; assay type: in vitro ADME; settings: pH 7.4
Description: as §3, §4

[11] = SRB, 48 h incubation, mean ± SEM n = 3, read-out: IC50 in A549 cells

## N=C(N)NCCC[C@H](NC(=O)[C@H](CCC(=O)O)NC(=O)c1ccc(/N=N/c2ccc(NC(=O)CNC(=O)[C@H](Cc3ccc(OP(=O)(O)O)cc3)NC(=O)[C@H](Cc3ccccc3)NC(=O)[C@H](Cc3ccccc3)NC(=O)CNC(=O)CCNc3ccc([N+](=O)[O-])c4nonc34)cc2)cc1)C(=O)NCC(=O)N[C@@H](CC(=O)O)C(=O)O [Comp. 1, NBD-GFFpYG-N=N-ERGD] ({NBD-βAla}-GFF[pY]G[X1]ERGD-OH)
[1]
  body weight change: did not exhibit a loss of body weight
[2]
  critical aggregation concentration (CAC): 263.6 µM
A549 xenograft tumors
  H&E histology of tumor tissue: severely apoptotic
A549 cells [3]
  lysosomal escape: efficiently escaped from the late endosomes/lysosomes
  mean fluorescence intensity in cells (versus cells treated with Comp. 4 and Comp. 5): significantly higher
Different cell lines
  cellular uptake in different cells: no significant differences
[4]
  metabolised at 6 h, 200 μM: > 95%
A549 cells [5]; [11]
  pIC50: ~5.60
[6]
  pIC50: ~4.40
MCF-7 cells
  pIC50: ~4.80
[7]
  appearance of solution: clear solution
A549 cells [8]
  mitochondrial membrane potential (JC-1): caused mitochondrial depolarization
PC-3 cells
  pIC50: ~4.69
U87 cells
  pIC50: ~5.29
HeLa cells
  pIC50: ~4.13
A549 cells [9]
  ER stress / cytoplasmic vacuolization: massive cytoplasmic vacuolization

## N=C(N)NCCC[C@H](NC(=O)[C@H](CCC(=O)O)NC(=O)c1ccc(/N=N/c2ccc(NC(=O)CNC(=O)[C@H](Cc3ccc(O)cc3)NC(=O)[C@H](Cc3ccccc3)NC(=O)[C@H](Cc3ccccc3)NC(=O)CNC(=O)CCNc3ccc([N+](=O)[O-])c4nonc34)cc2)cc1)C(=O)NCC(=O)N[C@@H](CC(=O)O)C(=O)O [Comp. 2, NBD-GFFYG-N=N-ERGD] ({NBD-βAla}-GFFYG[X1]ERGD-OH)
A549 xenograft tumors
  H&E histology of tumor tissue: underwent apoptosis
A549 cells [3]
  lysosomal escape: small fraction of lysosomal escape
  mean fluorescence intensity in cells (versus cells treated with Comp. 4 and Comp. 5): significantly higher
A549 cells [5]; [11]
  pIC50: 4.08
A549 cells [9]
  ER stress / cytoplasmic vacuolization: only caused slight ER stress
[10]
  metabolised at 24 h, 200 μM: > 70%

## N=C(N)NCCC[C@H](NC(=O)[C@H](CCC(=O)O)NC(=O)CNC(=O)[C@H](Cc1ccc(OP(=O)(O)O)cc1)NC(=O)[C@H](Cc1ccccc1)NC(=O)[C@H](Cc1ccccc1)NC(=O)CNC(=O)CCNc1ccc([N+](=O)[O-])c2nonc12)C(=O)NCC(=O)N[C@@H](CC(=O)O)C(=O)O [Comp. 4, NBD-GFFpYGERGD] ({NBD-βAla}-GFF[pY]GERGD-OH)
A549 cells [5]; [11]
  pIC50: < 3.30

## N=C(N)NCCC[C@H](NC(=O)[C@H](CCC(=O)O)NC(=O)CNC(=O)[C@H](Cc1ccc(O)cc1)NC(=O)[C@H](Cc1ccccc1)NC(=O)[C@H](Cc1ccccc1)NC(=O)CNC(=O)CCNc1ccc([N+](=O)[O-])c2nonc12)C(=O)NCC(=O)N[C@@H](CC(=O)O)C(=O)O [Comp. 5, NBD-GFFYGERGD] ({NBD-βAla}-GFFYGERGD-OH)
A549 cells [5]; 48 h
  pIC50: < 3.30
